Laboratory results reported in patent publication US11457624B2, “Adjuvant compositions for plant treatment chemicals” (CORBET SCIENTIFIC, LLC, priority 2016, dated 2022).

Key:
[1] = system: woody shrubs and mixed grasses; settings: general statement, no source given; cited from earlier work
[2] = system: Capsicum annuum Capistrano pepper plants; assay: Pepper harvest data, field trial; type: in vivo
Description: (§1) Field studies were conducted at the University of Florida, Southwest Florida Research and Education Center, Immokalee, Fla. For pepper trials, average monthly high and low temperatures were 98° F. and 70° F. in month one; 94° F. and 63° F. in month two; and 94° F. and 51° F. in month three; rainfall totaled 11.02, 0.95, and 2.41 inches for the same monthly periods, respectively. For squash trials, average monthly high and low temperatures were 93° F. and 45° F. in month one; 96° F. and 55° F. in month two; and 96° F. and 55° F. in month three; rainfall totaled 2.00, 3.35, and 5.59 inches for the same monthly periods, respectively.
(§2) In all trials, seedlings were transplanted into Immokalee fine sand on day 0. Treatments were arranged in a complete randomized block treatment design with four replicates. For pepper trials, ‘Capistrano’ seedlings were arranged in plots comprising 10 plants in a single row spaced 10 inches apart within a 36 inch wide row with 5 feet between each plot and 12 feet center to center between rows. For squash trials, four week old ‘Dixie’ plants were arranged in plots comprising eight plants spaced 3 feet apart with a 27 foot row and with 10 feet between each plot.
(§3) Each treatment formulation was spray applied. For pepper trials, treatment formulations were applied using a backpack CO2 sprayer at 40 psi with a single hollow-cone nozzle at 30 gal/A. Silicon was applied as sodium metasilicate nonahydrate (Na2SiO3.9H2O). For squash trials, treatment formulations were applied with a high clearance sprayer 2 mph and at 200 psi. A double drop boom equipped with six nozzles delivered a spray volume of 90 gal/A for tomato plants or 80 gal/A for squash plants.
(§4) For each trial, disease severity was assessed by visually estimating the percentage of foliage with symptoms of disease. For pepper trials, plants were examined for symptoms of bacterial spot. For squash trials, plants were examined for powdery mildew. The area under the disease progress curve (AUDPC) was calculated from disease severity ratings. In some trials, fruit was harvested and evaluated for the amount of marketable fruit produced per plot. Data were analyzed within the statistical program of ARM 9.1 (pepper trials) or ARM 9.0 (tomato and squash trials) by ANOVA and means separated by LSD.
Fruit was harvested on days 61 and 83.

[3] = system: bacterial spot (Xanthomonas euvesicatoria) on pepper; assay: Bacterial spot on pepper, field trial (disease severity, AUDPC); type: in vivo
Description: as §1, §2, §3
For pepper trials, a suspension of inoculum of bacterial spot containing strains of several races was applied at day 22 and new inoculum was introduced periodically throughout the remainder of the trial.
as §4
Transplanted Capsicum annuum ‘Capistrano’ pepper seedlings were grouped into one of six treatment groups. Group one was an untreated control. The remaining five groups were spray treated with formulations that differed in their chemical compositions (Table 7).
plants on days 14, 21, 28, 35, 42, 49, 56, 64, 71, 77, and 84. Plants were inoculated with a bacterial suspension (Xanthomonas euvesicatoria) on day 22 and periodically throughout the remainder of the trial. […]

[4] = sprays A-K, rates as in Table 7

For `CC(C)C1(C)N=C(c2ncccc2C(=O)O)NC1=O` (stereo not shown) [Imazapyr], the “time normally required to begin to see an effect on grassy plants” value [1] is given as 2-5 months.

With `O.O.O.O.O.O.O.O.O.O=[Si]([O-])[O-].[Na+].[Na+]` [Silicon, sodium metasilicate nonahydrate] the “Marketable Fruit in Pound per Plot” value ([2]; Day 61) was 2.9 a Pound per Plot, the “Number of Marketable Fruit per Plot” value ([2]; Day 61) was 12 a per Plot and the “Marketable Number of Fruit per Plot” value ([2]; Day 83) was 26.3 a per Plot. The “Marketable fruit weight per plot” value ([2]; Day 83) was 7.38 a Pound per Plot, the “Non-Marketable Fruit in Pound per Plot” value ([2]; Day 83) was 0.35 a Pound per Plot and the “Non-Marketable Fruit per Plot” value ([2]; Day 83) was 1 ab per Plot. The “AUDPC (area under the disease progress curve)” value ([3]; calculated from disease severity ratings) was 518.42 ab, the “Disease Severity Day 41” value ([3]; sprays A-K (Day 14-84), rates as in Table 7, inoculated day 22) was 10.3 a percentage of symptomatic foliage and the “Disease Severity Day 47” value [3, 4] was 21.5 a percentage of symptomatic foliage. The “Disease Severity Day 58” value [3, 4] was 21.3 ab percentage of symptomatic foliage, the “Disease Severity Day 61” value [3, 4] was 15 ab percentage of symptomatic foliage and the “Disease Severity Day 71” value [3, 4] was 22.5 ab percentage of symptomatic foliage.
